System: orthotopic 4T1 breast tumors
Experiment: PET-CT imaging of tumor accumulation in orthotopic 4T1 breast tumor mice
Format: in vivo, Balb/c mice
Conditions: scans at 10 min, 2, 6, 12, 24, 48 h

## Cys-Tyr-Ahx-LinTT1 [LinTT1-Tyr-^124I-PS]
  time post injection at which tumor accumulation is seen by PET: 2 h
